# Experimental data reported in PubChem BioAssay (NCI).
#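 Briefly, cells in 96-well plates were exposed to five compound concentrations for 48 h, and endpoints were estimated by linear interpolation. GI50 is the concentration that inhibits growth by half. TGI: concentration producing complete growth inhibition.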
# Key:
# Test in all cases: DTP human tumour cell line panel, 48 h
# 786-0 renal = system: 786-0 renal
# A498 renal = system: A498 renal
# A549 NSCLC = system: A549 NSCLC
# ACHN renal = system: ACHN renal
# BT-549 breast = system: BT-549 breast
# COLO 205 colon = system: COLO 205 colon
# DU-145 prostate = system: DU-145 prostate
# EKVX NSCLC = system: EKVX NSCLC
# HCC-2998 colon = system: HCC-2998 colon
# HCT-116 colon = system: HCT-116 colon
# HCT-15 colon = system: HCT-15 colon
# HL-60(TB) leukemia = system: HL-60(TB) leukemia
# HOP-92 NSCLC = system: HOP-92 NSCLC
# HS 578T breast = system: HS 578T breast
# HT29 colon = system: HT29 colon
# IGROV1 ovarian = system: IGROV1 ovarian
# K-562 leukemia = system: K-562 leukemia
# KM12 colon = system: KM12 colon
# LOX IMVI melanoma = system: LOX IMVI melanoma
# M14 melanoma = system: M14 melanoma
# MALME-3M melanoma = system: MALME-3M melanoma
# MCF7 breast = system: MCF7 breast
# MDA-MB-231 breast = system: MDA-MB-231 breast
# MDA-MB-435 = system: MDA-MB-435
# MOLT-4 leukemia = system: MOLT-4 leukemia
# NCI-H226 lung = system: NCI-H226 lung
# NCI-H23 lung = system: NCI-H23 lung
# NCI-H460 lung = system: NCI-H460 lung
# NCI-H522 lung = system: NCI-H522 lung
# NCI/ADR-RES ovarian = system: NCI/ADR-RES ovarian
# OVCAR-3 ovarian = system: OVCAR-3 ovarian
# OVCAR-4 ovarian = system: OVCAR-4 ovarian
# OVCAR-5 ovarian = system: OVCAR-5 ovarian
# OVCAR-8 ovarian = system: OVCAR-8 ovarian
# SF-268 CNS = system: SF-268 CNS
# SF-295 CNS = system: SF-295 CNS
# SF-539 CNS = system: SF-539 CNS
# SK-MEL-2 melanoma = system: SK-MEL-2 melanoma
# SK-MEL-28 melanoma = system: SK-MEL-28 melanoma
# SK-MEL-5 melanoma = system: SK-MEL-5 melanoma
# SK-OV-3 ovarian = system: SK-OV-3 ovarian
# SN12C renal = system: SN12C renal
# SNB-19 CNS = system: SNB-19 CNS
# SNB-75 CNS = system: SNB-75 CNS
# SR leukemia = system: SR leukemia
# SW-620 colon = system: SW-620 colon
# T-47D breast = system: T-47D breast
# TK-10 renal = system: TK-10 renal
# U251 CNS = system: U251 CNS
# UACC-257 melanoma = system: UACC-257 melanoma
# UACC-62 melanoma = system: UACC-62 melanoma
# UO-31 renal = system: UO-31 renal
# CAKI-1 renal = system: CAKI-1 renal
# CCRF-CEM leukemia = system: CCRF-CEM leukemia
# HOP-62 NSCLC = system: HOP-62 NSCLC
# PC-3 prostate = system: PC-3 prostate
# RPMI-8226 leukemia = system: RPMI-8226 leukemia
# RXF 393 renal = system: RXF 393 renal
smiles,measurement,setting,value
COc1ccc(-c2cs/c(=N\N=C\c3ccc(O)cc3O)n2/N=C/c2ccc(O)cc2O)cc1,GI50,786-0 renal,2.16 µM
same,TGI,786-0 renal,4.93 µM
same,GI50,A498 renal,1.75 µM
same,TGI,A498 renal,3.81 µM
same,GI50,A549 NSCLC,1.89 µM
same,TGI,A549 NSCLC,4.62 µM
same,GI50,ACHN renal,1.8 µM
same,TGI,ACHN renal,3.84 µM
same,GI50,BT-549 breast,1.54 µM
same,TGI,BT-549 breast,3.59 µM
same,GI50,COLO 205 colon,2.09 µM
same,TGI,COLO 205 colon,4.19 µM
same,GI50,DU-145 prostate,2.21 µM
same,TGI,DU-145 prostate,5.84 µM
same,GI50,EKVX NSCLC,2.32 µM
same,TGI,EKVX NSCLC,6.73 µM
same,GI50,HCC-2998 colon,2.07 µM
same,TGI,HCC-2998 colon,4.38 µM
same,GI50,HCT-116 colon,1.57 µM
same,TGI,HCT-116 colon,3.04 µM
same,GI50,HCT-15 colon,1.73 µM
same,TGI,HCT-15 colon,5.12 µM
same,GI50,HL-60(TB) leukemia,1.76 µM
same,TGI,HL-60(TB) leukemia,6.09 µM
same,GI50,HOP-92 NSCLC,2.38 µM
same,TGI,HOP-92 NSCLC,6.51 µM
same,GI50,HS 578T breast,2.7 µM
same,TGI,HS 578T breast,7.36 µM
same,GI50,HT29 colon,2.41 µM
same,TGI,HT29 colon,5.26 µM
same,GI50,IGROV1 ovarian,2.67 µM
same,TGI,IGROV1 ovarian,6.5 µM
same,GI50,K-562 leukemia,2.62 µM
same,TGI,K-562 leukemia,> 100 µM
same,GI50,KM12 colon,1.98 µM
same,TGI,KM12 colon,4.6 µM
same,GI50,LOX IMVI melanoma,1.76 µM
same,TGI,LOX IMVI melanoma,3.68 µM
same,GI50,M14 melanoma,1.63 µM
same,TGI,M14 melanoma,3.21 µM
same,GI50,MALME-3M melanoma,2.2 µM
same,TGI,MALME-3M melanoma,4.79 µM
same,GI50,MCF7 breast,1.9 µM
same,TGI,MCF7 breast,5.84 µM
same,GI50,MDA-MB-231 breast,2.04 µM
same,TGI,MDA-MB-231 breast,5.51 µM
same,GI50,MDA-MB-435,1.69 µM
same,TGI,MDA-MB-435,3.48 µM
same,GI50,MOLT-4 leukemia,1.79 µM
same,TGI,MOLT-4 leukemia,5.05 µM
same,GI50,NCI-H226 lung,2.08 µM
same,TGI,NCI-H226 lung,4.78 µM
same,GI50,NCI-H23 lung,1.95 µM
same,TGI,NCI-H23 lung,4.64 µM
same,GI50,NCI-H460 lung,2.01 µM
same,TGI,NCI-H460 lung,4.43 µM
same,GI50,NCI-H522 lung,1.88 µM
same,TGI,NCI-H522 lung,4.68 µM
same,GI50,NCI/ADR-RES ovarian,2.02 µM
same,TGI,NCI/ADR-RES ovarian,5.35 µM
same,GI50,OVCAR-3 ovarian,1.75 µM
same,TGI,OVCAR-3 ovarian,3.67 µM
same,GI50,OVCAR-4 ovarian,2.17 µM
same,TGI,OVCAR-4 ovarian,7.12 µM
same,GI50,OVCAR-5 ovarian,2.37 µM
same,TGI,OVCAR-5 ovarian,5.18 µM
same,GI50,OVCAR-8 ovarian,2.47 µM
same,TGI,OVCAR-8 ovarian,6.63 µM
same,GI50,SF-268 CNS,2.36 µM
same,TGI,SF-268 CNS,6.13 µM
same,GI50,SF-295 CNS,1.71 µM
same,TGI,SF-295 CNS,3.33 µM
same,GI50,SF-539 CNS,1.9 µM
same,TGI,SF-539 CNS,3.75 µM
same,GI50,SK-MEL-2 melanoma,2.14 µM
same,TGI,SK-MEL-2 melanoma,4.87 µM
same,GI50,SK-MEL-28 melanoma,1.88 µM
same,TGI,SK-MEL-28 melanoma,4.15 µM
same,GI50,SK-MEL-5 melanoma,1.69 µM
same,TGI,SK-MEL-5 melanoma,3.07 µM
same,GI50,SK-OV-3 ovarian,2.31 µM
same,TGI,SK-OV-3 ovarian,5.02 µM
same,GI50,SN12C renal,2.18 µM
same,TGI,SN12C renal,5.35 µM
same,GI50,SNB-19 CNS,2.46 µM
same,TGI,SNB-19 CNS,6.84 µM
same,GI50,SNB-75 CNS,1.58 µM
same,TGI,SNB-75 CNS,3.08 µM
same,GI50,SR leukemia,2.53 µM
same,TGI,SR leukemia,> 100 µM
same,GI50,SW-620 colon,2.33 µM
same,TGI,SW-620 colon,4.91 µM
same,GI50,T-47D breast,1.65 µM
same,TGI,T-47D breast,6.22 µM
same,GI50,TK-10 renal,2.46 µM
same,TGI,TK-10 renal,5.1 µM
same,GI50,U251 CNS,1.86 µM
same,TGI,U251 CNS,3.91 µM
same,GI50,UACC-257 melanoma,2.28 µM
same,TGI,UACC-257 melanoma,6.19 µM
same,GI50,UACC-62 melanoma,1.76 µM
same,TGI,UACC-62 melanoma,3.73 µM
same,GI50,UO-31 renal,1.5 µM
same,TGI,UO-31 renal,3.2 µM
NS(=O)(=O)c1ccc(-n2nc3c(c2-c2ccc(Cl)cc2)Cc2ccccc2-3)cc1,GI50,786-0 renal,14.6 µM
same,TGI,786-0 renal,30.7 µM
same,GI50,A498 renal,4.7 µM
same,TGI,A498 renal,19.1 µM
same,GI50,A549 NSCLC,37.8 µM
same,TGI,A549 NSCLC,> 100 µM
same,GI50,ACHN renal,19.8 µM
same,TGI,ACHN renal,34.6 µM
same,GI50,CAKI-1 renal,17.5 µM
same,TGI,CAKI-1 renal,31.6 µM
same,GI50,CCRF-CEM leukemia,2.96 µM
same,TGI,CCRF-CEM leukemia,9.08 µM
same,GI50,COLO 205 colon,22.8 µM
same,TGI,COLO 205 colon,64.1 µM
same,GI50,DU-145 prostate,15.1 µM
same,TGI,DU-145 prostate,33 µM
same,GI50,EKVX NSCLC,17.1 µM
same,TGI,EKVX NSCLC,33.5 µM
same,GI50,HCC-2998 colon,18.3 µM
same,TGI,HCC-2998 colon,35.7 µM
same,GI50,HCT-116 colon,4.06 µM
same,TGI,HCT-116 colon,21.3 µM
same,GI50,HCT-15 colon,19.7 µM
same,TGI,HCT-15 colon,38.4 µM
same,GI50,HOP-62 NSCLC,30.4 µM
same,TGI,HOP-62 NSCLC,49.4 µM
same,GI50,HOP-92 NSCLC,11.6 µM
same,TGI,HOP-92 NSCLC,24.5 µM
same,GI50,HS 578T breast,12.1 µM
same,TGI,HS 578T breast,33 µM
same,GI50,HT29 colon,15.4 µM
same,TGI,HT29 colon,98.1 µM
same,GI50,IGROV1 ovarian,2.58 µM
same,TGI,IGROV1 ovarian,14.2 µM
same,GI50,K-562 leukemia,4.98 µM
same,TGI,K-562 leukemia,17.2 µM
same,GI50,KM12 colon,19.9 µM
same,TGI,KM12 colon,52.8 µM
same,GI50,LOX IMVI melanoma,19 µM
same,TGI,LOX IMVI melanoma,37.4 µM
same,GI50,M14 melanoma,13.1 µM
same,TGI,M14 melanoma,31.5 µM
same,GI50,MALME-3M melanoma,2.96 µM
same,TGI,MALME-3M melanoma,14.7 µM
same,GI50,MCF7 breast,22.9 µM
same,TGI,MCF7 breast,54.8 µM
same,GI50,MDA-MB-231 breast,14.8 µM
same,TGI,MDA-MB-231 breast,30.1 µM
same,GI50,MDA-MB-435,17.8 µM
same,TGI,MDA-MB-435,32.6 µM
same,GI50,MOLT-4 leukemia,5.51 µM
same,TGI,MOLT-4 leukemia,23.1 µM
same,GI50,NCI-H226 lung,16.8 µM
same,TGI,NCI-H226 lung,35.4 µM
same,GI50,NCI-H23 lung,3.27 µM
same,TGI,NCI-H23 lung,19.6 µM
same,GI50,NCI-H460 lung,32.1 µM
same,TGI,NCI-H460 lung,> 100 µM
same,GI50,NCI-H522 lung,5.63 µM
same,TGI,NCI-H522 lung,19.3 µM
same,GI50,NCI/ADR-RES ovarian,19.6 µM
same,TGI,NCI/ADR-RES ovarian,44.8 µM
same,GI50,OVCAR-3 ovarian,17 µM
same,TGI,OVCAR-3 ovarian,31.6 µM
same,GI50,OVCAR-4 ovarian,15 µM
same,TGI,OVCAR-4 ovarian,30.3 µM
same,GI50,OVCAR-5 ovarian,24.2 µM
same,TGI,OVCAR-5 ovarian,57.4 µM
same,GI50,OVCAR-8 ovarian,21.6 µM
same,TGI,OVCAR-8 ovarian,44 µM
same,GI50,PC-3 prostate,14 µM
same,TGI,PC-3 prostate,27.9 µM
same,GI50,RPMI-8226 leukemia,10.4 µM
same,TGI,RPMI-8226 leukemia,24.7 µM
same,GI50,RXF 393 renal,17 µM
same,TGI,RXF 393 renal,34.4 µM
same,GI50,SF-268 CNS,22.4 µM
same,TGI,SF-268 CNS,50.4 µM
same,GI50,SF-295 CNS,29.8 µM
same,TGI,SF-295 CNS,82.3 µM
same,GI50,SF-539 CNS,17.5 µM
same,TGI,SF-539 CNS,31.6 µM
same,GI50,SK-MEL-2 melanoma,13.6 µM
same,TGI,SK-MEL-2 melanoma,29.3 µM
same,GI50,SK-MEL-28 melanoma,18.3 µM
same,TGI,SK-MEL-28 melanoma,35 µM
same,GI50,SK-MEL-5 melanoma,1.36 µM
same,TGI,SK-MEL-5 melanoma,3.33 µM
same,GI50,SK-OV-3 ovarian,77.1 µM
same,TGI,SK-OV-3 ovarian,> 100 µM
same,GI50,SN12C renal,5.49 µM
same,TGI,SN12C renal,18.3 µM
same,GI50,SNB-19 CNS,31.7 µM
same,TGI,SNB-19 CNS,> 100 µM
same,GI50,SNB-75 CNS,14.6 µM
same,TGI,SNB-75 CNS,30.5 µM
same,GI50,SR leukemia,5.82 µM
same,TGI,SR leukemia,21.3 µM
same,GI50,SW-620 colon,1.88 µM
same,TGI,SW-620 colon,4.48 µM
same,GI50,T-47D breast,91 µM
same,TGI,T-47D breast,> 100 µM
same,GI50,TK-10 renal,19.5 µM
same,TGI,TK-10 renal,35.6 µM
same,GI50,U251 CNS,19.5 µM
same,TGI,U251 CNS,37.3 µM
same,GI50,UACC-257 melanoma,20.6 µM
same,TGI,UACC-257 melanoma,39.5 µM
same,GI50,UACC-62 melanoma,13.7 µM
same,TGI,UACC-62 melanoma,26.9 µM
same,GI50,UO-31 renal,9.57 µM
same,TGI,UO-31 renal,21.8 µM
